Test results reported in patent US20250163021A1, “2-METHYL-4-PHENYLPIPERIDIN-4-OL DERIVATIVES AS INHIBITORS OF APOL1 AND METHODS OF USING SAME” (Vertex Pharmaceuticals Incorporated, priority 2022, published 2025).

Molecular target: T1, APOL1 (Homo sapiens, UniProt O14791)
T1 sequence (O14791 1-398 S342G/I384M): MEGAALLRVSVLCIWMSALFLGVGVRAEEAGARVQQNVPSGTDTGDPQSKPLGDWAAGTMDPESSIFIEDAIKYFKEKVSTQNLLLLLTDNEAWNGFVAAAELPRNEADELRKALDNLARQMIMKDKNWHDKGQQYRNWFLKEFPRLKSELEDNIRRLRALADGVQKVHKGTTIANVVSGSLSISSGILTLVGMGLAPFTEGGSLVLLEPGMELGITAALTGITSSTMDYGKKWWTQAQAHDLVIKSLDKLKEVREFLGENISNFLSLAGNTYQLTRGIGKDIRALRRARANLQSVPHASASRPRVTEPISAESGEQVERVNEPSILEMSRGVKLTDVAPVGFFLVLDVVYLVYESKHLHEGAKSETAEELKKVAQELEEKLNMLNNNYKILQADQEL
Test: MultiTox-Fluor Multiplex Cytotoxicity Assay in tet-inducible APOL1 T-REx-HEK293 cells
Format: cell-based
Settings: tet-inducible transgenic APOL1 T-REx-HEK293 cells, 50 ng/mL tet, 24 hours; ratio of dead to live cells; APOL1 variant (G0/G1/G2) not stated; read-out: IP50 (nM) (i.e., IC50 for cell proliferation)
Experimental: The MultiTox-Fluor Multiplex Cytotoxicity Assay is a single-reagent-addition, homogeneous, fluorescence assay that measures the number of live and dead cells simultaneously in culture wells. The assay measures cell viability and cytotoxicity by detecting two distinct protease activities. The live-cell protease activity is restricted to intact viable cells and is measured using a fluorogenic, cell-permeant peptide glycyl-phenylalanylamino fluorocoumarin (GF-AFC) substrate. The substrate enters intact cells, where it is cleaved to generate a fluorescent signal proportional to the number of living cells. […] A second, cell-impermeant, fluorogenic peptide substrate (bis-AAF-R^110 Substrate) is used to measure dead-cell protease that has been released from cells that have lost membrane integrity. A ratio of dead to live cells is used to normalize data.
Briefly, the tet-inducible transgenic APOL1 T-REx-HEK293 cell lines were incubated with 50 ng/mL tet to induce APOL1 in the presence of 3-(2-(4-fluorophenyl)-1H-indol-3-yl)-N-((3S,4R)-4-hydroxy-2-oxopyrrolidin-3-yl)propenamide at 10.03, 3.24, 1.13, 0.356, 0.129, 0.042, 0.129, 0.0045, 0.0015, 0.0005 μM in duplicate for 24 hours in a humidified 37° C. incubator. The MultiTox reagent was added to each well and placed back in the incubator for an additional 30 minutes. The plate was read on the EnVision plate reader. A ratio of dead to live cells was used to normalize, and data was imported, analyzed, and fit using Genedata Screener (Basel, Switzerland) software. Data was normalized using percent of control, no tet (100% viability), and 50 ng/mL tet treated (0% viability),and fit using Smart Fit. The reagents, methods, and complete protocol for the MultiTox assay are described below.
Human embryonic kidney (HEK293) cell lines containing a tet-inducible expression system (T-REx™; Invitrogen, Carlsbad, CA) and Adeno-associated virus site 1 pAAVS1-Puro-APOL1 G0 or pAAVS1-Puro-APOL1 G1 or pAAVS1-Puro-APOL1 G2 Clones G0 DC2.13, G1 DC3.25, and G2 DC4.44 were grown in a T-225 flask at ˜90% confluency in cell growth media (DMEM, 10% Tet-free FBS, 2 mM L-glutamine, 100 Units/mL penicillin-streptomycin, 5 μg/mL blasticidin S HCl, 1 μg/mL puromycin dihydrochloride). Cells were washed with DPBS and then trypsinized to dissociate from the flask. Media was used to quench the trypsin, cells were then pelleted at 200 g and resuspended in fresh cell assay media (DMEM, 2% Tet-free FBS, 2 mM L-glutamine, 100 Units/mL penicillin-streptomycin). Cells were counted and diluted to 1.17×10^6 cells/mL. 20 μL of cells (23,400/well) were dispensed in every well of a 384-well Poly-D-Lysine coated plate using the Multidrop dispenser. The plates were then incubated at room temperature for one hour.
Tetracycline is needed to induce APOL1 expression. 1 mg/mL tet stock in water was diluted to 250 ng/mL (5×) in cell assay media. 60 μL of cell assay media (no tet control) was dispensed in columns 1 and 24, and 60 μL of 5× tet in 384-PP-round bottom plate was dispensed in columns 2 to 23 with the Multidrop dispenser.
Assay ready plates from the Global Compound Archive were ordered using template 384_APOL1Cell_DR10n2_50 μM_v3. Compounds were dispensed at 200 nL in DMSO. The final top concentration was 10 μM with a 10 point 3-fold dilution in duplicate in the MultiTox assay.
20 μL was transferred from the 5× tet plate to the ARP and mixed, then 5 μL of 5× tet and the compounds were transferred to the cell plate and mixed using the Bravo. The cell plate was placed in the humidified 37° C. 5% CO2 incubator for 24 hours.
The MultiTox-Fluor Multiplex Cytotoxicity Assay was performed in accordance with the manufacturer's protocol. After cells were incubated with tet and compound for 24 hours, 25 μL of 1× MultiTox reagent was added to each well using the Multidrop dispenser; the plates were placed on a plate shaker (600 rpm) for 2 minutes, then centrifuged briefly and placed back in the 37° C. incubator for 30 minutes. […]

Structure (SMILES)	IC50 [nM]
C[C@H]1C[C@@](O)(c2cccc(Cl)c2)CCN1Cc1cnn(CCS(C)(=O)=O)c1 [Compound 21]	≤ 100
Cc1ccc(CN2CC[C@](O)(c3cccc(Cl)c3)C[C@@H]2C)nn1 [Compound 18]	500 to 5000
Cc1cccc([C@@]2(O)CCN(Cc3ccc4c(c3)n(C)c(=O)n4C)[C@@H](C)C2)c1 [Compound 1, 5-[[(2S,4R)-4-hydroxy-2-methyl-4-(m-tolyl)-1-piperidyl]methyl]-1,3-dimethyl-benzimidazol-2-one]	100 to 500
C[C@@H]1C[C@](O)(c2cccc(F)c2)CCN1Cc1ccc2c(c1)n(C)c(=O)n2C [Compound 11]	100 to 500
Cc1cc(C)cc([C@@]2(O)CCN(Cc3ccc4c(c3)n(C)c(=O)n4C)[C@@H](C)C2)c1 [Compound 15]	≤ 100
C[C@H]1C[C@@](O)(c2cccc(Cl)c2)CCN1Cc1ncco1 [Compound 22]	500 to 5000
C[C@H]1C[C@@](O)(c2ccc3c(c2)CCO3)CCN1Cc1ccc2c(c1)n(C)c(=O)n2C [Compound 14]	500 to 5000
C[C@@H]1C[C@](O)(c2ccc(Cl)c(Cl)c2)CCN1Cc1ccc2c(c1)n(C)c(=O)n2C [Compound 12]	100 to 500
C[C@H]1C[C@@](O)(c2cccc(C3CC3)c2)CCN1Cc1ccc2c(c1)n(C)c(=O)n2C [Compound 13]	≤ 100
C[C@H]1C[C@@](O)(c2ccccc2)CCN1Cc1ccc2c(c1)n(C)c(=O)n2C [Compound 2]	100 to 500
C[C@H]1C[C@@](O)(c2cccc(Cl)c2)CCN1Cc1cnn(CC(=O)N(C)C)c1 [Compound 20]	100 to 500
CC(C)n1cc(CN2CC[C@](O)(c3cccc(Cl)c3)C[C@@H]2C)cn1 [Compound 17]	500 to 5000
C[C@@H]1C[C@](O)(c2ccccc2)CCN1Cc1ccc2c(c1)n(C)c(=O)n2C [Compound 3]	500 to 5000
Cc1nc(CN2CC[C@](O)(c3cccc(Cl)c3)C[C@@H]2C)c[nH]1 [Compound 26]	500 to 5000
Cc1ncc(CN2CC[C@](O)(c3cccc(Cl)c3)C[C@@H]2C)cn1 [Compound 19]	500 to 5000
C[C@H]1C[C@@](O)(c2cccc(Cl)c2)CCN1Cc1ccc(C(N)=O)cc1 [Compound 24]	100 to 500
C[C@H]1C[C@@](O)(c2cc(F)cc(Cl)c2)CCN1Cc1ccc2c(c1)n(C)c(=O)n2C [Compound 8]	≤ 100
C[C@H]1C[C@@](O)(c2ccc(Cl)cc2)CCN1Cc1ccc2c(c1)n(C)c(=O)n2C [Compound 7]	≤ 100
C[C@H]1C[C@@](O)(c2ccc(Cl)c(Cl)c2)CCN1Cc1ccc2c(c1)n(C)c(=O)n2C [Compound 9]	≤ 100
C[C@H]1C[C@](O)(c2ccc(Cl)cc2)CCN1Cc1ccc2c(c1)n(C)c(=O)n2C [Compound 6]	500 to 5000
C[C@H]1C[C@@](O)(c2cccc(Cl)c2)CCN1Cc1cnn(C2CCS(=O)(=O)C2)c1 (stereo partly drawn) [Compound 16, (2S,4R)-4-(3-chlorophenyl)-1-[[1-(1,1-dioxothiolan-3-yl)pyrazol-4-yl]methyl]-2-methyl-piperidin-4-ol]	100 to 500
C[C@H]1C[C@@](O)(c2cccc(Cl)c2)CCN1Cc1ccc2c(c1)n(C)c(=O)n2C [Compound 4]	≤ 100
Cc1nc(CN2CC[C@](O)(c3cccc(Cl)c3)C[C@@H]2C)co1 [Compound 25]	500 to 5000
C[C@H]1CC(O)(c2cccc(C(F)(F)F)c2)CCN1Cc1ccc2c(c1)n(C)c(=O)n2C (some centres unmarked) [Compound 5]	100 to 500
C[C@@H]1C[C@](O)(c2ccc(Cl)cc2)CCN1Cc1ccc2c(c1)n(C)c(=O)n2C [Compound 10]	≤ 100
C[C@H]1C[C@@](O)(c2cccc(Cl)c2)CCN1Cc1cnn(-c2ccccn2)c1 [Compound 23]	≤ 100
